Laboratory results from patent US5308605A, “Diagnosis of tumors with 5-radioiodo-2'-deoxyuridine” (priority 1992, dated 1994).
Where two headings read alike, the source gives them in different places.

Key:
[1] = tested on: murine ovarian tumor (MOT); assay: Antineoplastic effect (survival fraction, median survival) in mouse ascites tumor; type: in vivo, C3HeB/FeJ mice
From the text: 2. ^125 IUdR Is an Effective Antineoplastic Agent In A Mouse Ascites Tumor. The tumor used in these experiments is the same murine ovarian tumor described above. We have determined the median survival of mice after i.p. challenge with various tumor cell inocula.
The relatively long survival of tumor-bearing mice facilitates quantitative evaluation of tumor cell killing after treatment with ^125 IUdR and can be used to calculate a cellular survival fraction.

[2] = tested on: murine ovarian tumor (MOT); assay: Scintigraphic imaging of ovarian tumor-bearing mice; type: in vivo, C3HeB/FeJ mice; settings: later than 1 h (2, 16, 24 hr); 300 μCi
9 L gliosarcoma [3] = assay: Scintigraphic imaging of brain tumors after intratumor injection; settings: control animals; images 12-38 h
9 L gliosarcoma [4] = assay: Biodistribution 40 h after injection in brain tumor-bearing rats
[5] = tested on: transitional cell carcinoma of the bladder; assay: Planar scintigraphy of MNU-induced bladder cancer; type: in vivo, Fisher 344 rats; settings: day 3, intravesical
Protocol: The carcinogen N-methyl-N-nitrosourea (MNU), known to induce transitional cell carcinoma of the bladder, was instilled directly into the bladder lumen of 4-to-5-week old female Fisher 344 rats (20 animals) via bladder catheterization using a 22-gauge angiocatheter (1.5 mg/0.15 ml saline intravesically, every other week for a total of 4 doses). The drinking water was supplemented with a combination of trimethoprim-sulfamethoxasole, neomycin sulfate and polymixin B. Twelve to sixteen weeks after the last MNU infusion, the bladder was catheterized and emptied and [^125 I/^131 I ]IUdR (6. 4 to 10. 9 MBq [^125 I]IUdR [172 to 294 μCi] and 10.7 MBq [^131 I ]IUdR [290 μCi]) was administered through the catheter in a 100- or 200- μl volume and left in place for 2 h. The bladder contents were then withdrawn and the bladder rinsed with normal saline (5×1-ml). Nontumor-bearing control rats (16 animals) were injected by the same route with identical amounts of [^125 I/^131 I]IUdR. The drinking water of all animals was supplemented with 0. 1% potassium iodide from 48 to 72 h prior to the administration of the radiopharmaceutical up to the time of sacrifice. The tumor-bearing rats and the non-tumor bearing control rats were divided into Group A consisting of 12 tumor-bearing and 12 control rats, and Group B consisting of 8 tumor-bearing and 4 control rats. […]

[6] = humans; unincorporated IUdR; cited from earlier work
[7] = mouse; unincorporated IUdR; cited from earlier work
[8] = tested on: transitional cell carcinoma of the bladder; type: in vivo, Fisher 344 rats
From the text: No carrier added [^125 I/^131 I] IUdR was synthesized as described previously, see U.S. Pat. No. 4,851,520 hereby incorporated by reference, and purified on a C18 reverse phase HPLC column. The radiochemical purity of the product was>99% as determined by TLC with specific activities of 81.40 TBq/mmol and 96.94 GBq/mmol for [^125 I] IUdR and [^131 I] IUdR, respectively.
The carcinogen N-methyl-N-nitrosourea (MNU), known to induce transitional cell carcinoma of the bladder, was instilled directly into the bladder lumen of 4-to-5-week old female Fisher 344 rats (20 animals) via bladder catheterization using a 22-gauge angiocatheter (1.5 mg/0.15 ml saline intravesically, every other week for a total of 4 doses). […]
The biodistribution studies were conducted at 48 hours and at 1 week after administration of radiolabeled IUdR in order to quantitate the in vivo distribution of the radiopharmaceutical in terms of percent injected dose per gram of tissue (%ID/g) and to derive tumor to normal tissue ratios. Various organs and tissues of interest were excised, rinsed, blotted dry, weighed, and their radioactive content was determined in a gamma counter along with that of urine, stomach contents, blood and bone marrow.

DNA = assay: Microautoradiography of bladder, intestine and bone marrow; type: in vivo, Fisher 344 rats
Protocol: The carcinogen N-methyl-N-nitrosourea (MNU), known to induce transitional cell carcinoma of the bladder, was instilled directly into the bladder lumen of 4-to-5-week old female Fisher 344 rats (20 animals) via bladder catheterization using a 22-gauge angiocatheter (1.5 mg/0.15 ml saline intravesically, every other week for a total of 4 doses). The drinking water was supplemented with a combination of trimethoprim-sulfamethoxasole, neomycin sulfate and polymixin B. Twelve to sixteen weeks after the last MNU infusion, the bladder was catheterized and emptied and [^125 I/^131 I ]IUdR (6. 4 to 10. 9 MBq [^125 I]IUdR [172 to 294 μCi] and 10.7 MBq [^131 I ]IUdR [290 μCi]) was administered through the catheter in a 100- or 200- μl volume and left in place for 2 h. The bladder contents were then withdrawn and the bladder rinsed with normal saline (5×1-ml). Nontumor-bearing control rats (16 animals) were injected by the same route with identical amounts of [^125 I/^131 I]IUdR. The drinking water of all animals was supplemented with 0. 1% potassium iodide from 48 to 72 h prior to the administration of the radiopharmaceutical up to the time of sacrifice. The tumor-bearing rats and the non-tumor bearing control rats were divided into Group A consisting of 12 tumor-bearing and 12 control rats, and Group B consisting of 8 tumor-bearing and 4 control rats. Group A was sacrificed 48 hours after administration of the radiopharmaceutical while Group B was sacrificed one (1) week after administration of the radiopharmaceutical.
The specificity of targeting and the DNA-incorporation of [^125 I]IUdR were determined by microautoradiography. The distribution and frequency of grains were assessed over the entire section and compared to the histopathologic findings. At the time of the biodistribution studies, the small intestine and the large intestine were quickly frozen in isopentane and liquid nitrogen. Bone marrow smears were fixed in 100% methanol. After rinsing with normal saline, the bladder was fixed in situ with 10% buffered formaldehyde, excised, and subsequently embedded in paraffin. The tissues were then sectioned (5-7 μm thickness), fixed (except for the bladder sections already fixed in vivo) and processed for autoradiography as were the bone marrow smears.
The tissue sections and bone marrow slides were coated with NTB2 emulsion (Kodak) and stored desiccated at 4° C. in light-tight boxes. After various times of emulsion exposure (up to 7 months), the autoradiographic slides were developed for 3 min in D-19 developer (Kodak) and fixed for 5 min in D-11 fixer (Kodak). Finally, the tissue sections were washed in distilled water, stained with hematoxylin/eosin, dehydrated, cleared, and mounted in Permount. Bone marrow slides were stained with Giemsa stain. Tissue and bone marrow slides were then examined under light microscopy.

O=c1[nH]c(=O)n([C@H]2C[C@H](O)[C@@H](CO)O2)cc1I [^123 IUdR, 5-iodo-2'-deoxyuridine]
survival fraction of tumor cells as a function of dose ([1]; 5 i.p. injections, 4 h intervals): an exponential decrease is obtained similar to that observed with the ^125 IUdR data | median survival of tumor-bearing animals ([1]; 5 i.p. injections, 4 h intervals, 24 h post tumor inoculation): prolongs median survival of the tumor-bearing animals (FIG. 7 of the incorporated patent) in a dose-dependent fashion | focal area of abdominal activity, later time points [2]: persisted only in MOT-bearing mice while it cleared from the abdomen of animals without tumor | clearance of activity from the head (9 L gliosarcoma [3]): clearance of the activity from the head of all control animals by 12 h | injected dose found in tumor (9 L gliosarcoma [4]; one animal, tumor occupied large portion of right brain specimen): 25 % of the injected dose | injected dose per gram, right brain (injected side), sham-operated (9 L gliosarcoma [4]; sham-operated controls, mean±SD): 0.09±0.02 %ID/g | injected dose per gram, right brain (injected side), tumor-bearing (9 L gliosarcoma [4]; tumor-bearing animals, mean±SD, P<0.05 vs sham): 0.36±0.14 %ID/g

O=c1[nH]c(=O)n([C@H]2C[C@H](O)[C@@H](CO)O2)cc1I [[^131 I]IUdR, 5-iodo-2'-deoxyuridine]
decrease in survival ([1]; equivalent doses, 131I label): does not result in any decrease in survival | scintigraphic activity in normal animals [5]: virtual absence of activity in normal animals | scintigraphic activity in tumor-bearing animals [5]: only visible area of activity remaining in the tumor-bearing animals was over the region of the bladder

O=c1[nH]c(=O)n([C@H]2C[C@H](O)[C@@H](CO)O2)cc1I [IUdR, 5-Iodo-2'-deoxyuridine]
half-life in circulation [6]: less than five | half-life in circulation [7]: less than seven

O=c1[nH]c(=O)n([C@H]2C[C@H](O)[C@@H](CO)O2)cc1I [^125 IUdR, 5-iodo-2'-deoxyuridine]
tumor cell survival fraction (plateau) ([1]; seven consecutive injections): 10^-5 | percent injected dose per gram of bladder, tumor-bearing vs control ([8]; 48 h): significant difference | permeation to the systemic circulation ([8]; rat, not told): very low | penetration into the bladder wall (DNA; animals with infection/inflammation): potential for radiolabeled IUdR to penetrate deep within the bladder wall | uptake in squamous metaplasia and bacteria (DNA; basal layer of squamous metaplasia, bacteria when active infection present): Uptake was also observed in the basal layer of squamous metaplasia and in bacteria when active infection was present | cell-associated silver grains in bone marrow smears (DNA; bone marrow): free of cell-associated silver grains | uptake in the urothelium of control animals (DNA; control animals): did not show uptake in the urothelium | autoradiographic uptake by the tumor (DNA; hyperplasia and papillary carcinoma stages): uptake of radiolabeled IUdR by the tumor at the early stage of tumor development, i.e. the hyperplasia stage, as well as in the later papillary carcinoma stage | silver grains in actively dividing normal epithelia (DNA; rat, in vivo): did not show the presence of silver grains | silver grains in normal urothelium (DNA; rat, in vivo): generally free of silver grains | DNA incorporation by abnormal urothelium vs normal (DNA; tumor-bearing animals): always significantly higher
